Measured values: US6441195B1, “Substituted sulphonylamino(thio) carbonyl compounds” (Bayer Aktiengesellschaft, priority 1995, dated 2002)

Assays:
Format in all cases: in vivo
[1] = tested on: Soya beans; test: Pre-emergence test/Greenhouse, Soya beans; settings: in vivo
Summary of the method: (§1)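 Pre-emergence soil drench ~24 h after sowing; compound in solvent/emulsifier diluted with water, constant water per area, dose defined by rate per unit area. Read-out at 3 wk: % damage vs untreated control, 0% = no action.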

[2] = tested on: Gallium; test: Post-emergence test/greenhouse, Gallium; settings: greenhouse, 60 g of ai./ha, after three weeks
Method: (§2) Solvent: 5 parts by weight of acetone
(§3) Emulsifier: 1 part by weight of alkylaryl polyglycol ether
(§4) To produce a suitable preparation of active compound, 1 part by weight of active compound is mixed with the stated amount of solvent, the stated amount of emulsifier is added and the concentrate is diluted with water to the desired concentration.
(§5) Test plants which have a height of 5-15 cm are sprayed with the preparation of the active compound in such a way as to apply the particular amounts of active compound desired per unit area. The concentration of the spray liquor is chosen so that the particular amounts of active compound desired are applied in 2000 l of water/ha.
(§6) After three weeks, the degree of damage to the plants is rated in % damage in comparison to the development of the untreated control.
(§7) 0%=no action (like untreated control)

[3] = tested on: Matricaria; test: Post-emergence test/greenhouse, Matricaria; settings: greenhouse, 60 g of ai./ha, after three weeks
Method: as §2, §3, §4, §5, §6, §7

[4] = tested on: Sorghum; test: Pre-emergence test/Greenhouse, Sorghum; settings: after three weeks
Summary of the method: as §1

[5] = tested on: Echinochloa; test: Post-emergence test/greenhouse, Echinochloa; settings: greenhouse, 60 g of ai./ha, after three weeks
Method: as §2, §3, §4, §5, §6, §7

[6] = tested on: weeds; test: Post-emergence test (greenhouse), activity against weeds; settings: in words
Method: as §2, §3, §4, §5, §6, §7

[7] = tested on: Ambrosia; test: Pre-emergence test/Greenhouse, Ambrosia; settings: after three weeks
Summary of the method: as §1

[8] = tested on: Maize; test: Pre-emergence test/Greenhouse, Maize; settings: in vivo
Summary of the method: as §1

[9] = tested on: Lolium; test: Post-emergence test/greenhouse, Lolium; settings: greenhouse, 60 g of ai./ha, after three weeks
Method: as §2, §3, §4, §5, §6, §7

[10] = tested on: Solanum; test: Pre-emergence test/Greenhouse, Solanum; settings: after three weeks
Summary of the method: as §1

[11] = tested on: Stellaria; test: Post-emergence test/greenhouse, Stellaria; settings: greenhouse, 60 g of ai./ha, after three weeks
Method: as §2, §3, §4, §5, §6, §7

[12] = tested on: Poa; test: Pre-emergence test/Greenhouse, Poa; settings: after three weeks
Summary of the method: as §1

[13] = tested on: Matricaria; test: Pre-emergence test/Greenhouse, Matricaria; settings: after three weeks
Summary of the method: as §1

[14] = tested on: Amaranthus; test: Post-emergence test/greenhouse, Amaranthus; settings: greenhouse, 60 g of ai./ha, after three weeks
Method: as §2, §3, §4, §5, §6, §7

[15] = tested on: Digitaria; test: Post-emergence test/greenhouse, Digitaria; settings: greenhouse, 60 g of ai./ha, after three weeks
Method: as §2, §3, §4, §5, §6, §7

[16] = tested on: weeds; test: Pre-emergence test (greenhouse), activity against weeds; settings: in words
Summary of the method: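 Three weeks after treatment, % damage relative to untreated plants is scored, 0% meaning no effect. Seeds in normal soil received, roughly one day post-sowing, an aqueous dilution of an acetone/emulsifier concentrate, with the rate per unit area, not concentration, being the relevant dose.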

[17] = tested on: Sorghum; test: Post-emergence test/greenhouse, Sorghum; settings: greenhouse, 60 g of ai./ha, after three weeks
Method: as §2, §3, §4, §5, §6, §7

[18] = tested on: Lolium; test: Pre-emergence test/Greenhouse, Lolium; settings: after three weeks
Summary of the method: as §1

Row | Compound | degree of damage to the plants (% damage vs untreated control), Soya beans [1] [%] | degree of damage, Gallium [2] [%] | degree of damage, Matricaria [3] [%] | degree of damage, Echinochloa [5] [%] | activity against weeds [6] | degree of damage to the plants (% damage vs untreated control), Maize [8] [%] | degree of damage, Lolium [9] [%] | degree of damage, Stellaria [11] [%] | degree of damage, Amaranthus [14] [%] | degree of damage, Digitaria [15] [%] | activity against weeds [16] | degree of damage, Sorghum [17] [%] | other results
1 | CCCOc1nn(C(=O)NS(=O)(=O)c2c(C)cccc2C(=O)OC)c(=O)n1C1CC1 [Example 165] | 10 | 95 | 95 | 80 | very strong activity against weeds | 0 | 50 | 95 | 95 | 50 | very strong activity against weeds | 90 | degree of damage to the plants (% damage vs untreated control), Sorghum ([4]; 8 g of ai./ha): 70%; degree of damage to the plants (% damage vs untreated control), Ambrosia ([7]; 8 g of ai./ha): 80%; degree of damage to the plants (% damage vs untreated control), Solanum ([10]; 8 g of ai./ha): 80%; degree of damage to the plants (% damage vs untreated control), Poa ([12]; 8 g of ai./ha): 90%; degree of damage to the plants (% damage vs untreated control), Matricaria ([13]; 8 g of ai./ha): 90%
2 | CCSc1nn(C(=O)NS(=O)(=O)c2c(C)cccc2C(=O)OC)c(=O)n1C1CC1 [Example 159] | – | 95 | 100 | 80 | very strong activity against weeds | 10 | 60 | 100 | 95 | 60 | very strong activity against weeds | 70 | degree of damage to the plants (% damage vs untreated control), Sorghum ([4]; 30 g of ai./ha): 60%; degree of damage to the plants (% damage vs untreated control), Ambrosia ([7]; 30 g of ai./ha): 95%; degree of damage to the plants (% damage vs untreated control), Solanum ([10]; 30 g of ai./ha): 95%; degree of damage to the plants (% damage vs untreated control), Poa ([12]; 30 g of ai./ha): 95%; degree of damage to the plants (% damage vs untreated control), Matricaria ([13]; 30 g of ai./ha): 95%; degree of damage to the plants (% damage vs untreated control), Lolium ([18]; 30 g of ai./ha): 90%
3 | CCOC(=O)c1scc(C)c1S(=O)(=O)NC(=O)n1nc(OCC)n(C2CC2)c1=O [Example 63] | – | 90 | 95 | 90 | very strong activity against weeds | 10 | 70 | 100 | 100 | 50 | very strong activity against weeds | 80 | degree of damage to the plants (% damage vs untreated control), Sorghum ([4]; 60 g of ai./ha): 80%; degree of damage to the plants (% damage vs untreated control), Ambrosia ([7]; 60 g of ai./ha): 100%; degree of damage to the plants (% damage vs untreated control), Solanum ([10]; 60 g of ai./ha): 100%; degree of damage to the plants (% damage vs untreated control), Poa ([12]; 60 g of ai./ha): 95%; degree of damage to the plants (% damage vs untreated control), Matricaria ([13]; 60 g of ai./ha): 100%; degree of damage to the plants (% damage vs untreated control), Lolium ([18]; 60 g of ai./ha): 100%
4 | CCOC(=O)c1cccc(Cl)c1S(=O)(=O)NC(=O)n1nc(SC)n(C)c1=O [Example 131] | 0 | – | – | – | – | 0 | – | – | – | – | very strong activity against weeds | – | degree of damage to the plants (% damage vs untreated control), Sorghum ([4]; 250 g of ai./ha): 90%; degree of damage to the plants (% damage vs untreated control), Ambrosia ([7]; 250 g of ai./ha): 95%; degree of damage to the plants (% damage vs untreated control), Solanum ([10]; 250 g of ai./ha): 95%; degree of damage to the plants (% damage vs untreated control), Poa ([12]; 250 g of ai./ha): 90%; degree of damage to the plants (% damage vs untreated control), Matricaria ([13]; 250 g of ai./ha): 80%; degree of damage to the plants (% damage vs untreated control), Lolium ([18]; 250 g of ai./ha): 95%
5 | C#CCSc1nn(C(=O)NS(=O)(=O)c2c(C)csc2C(=O)OC)c(=O)n1C [Example 51] | 30 | – | – | – | – | 0 | – | – | – | – | very strong activity against weeds | – | degree of damage to the plants (% damage vs untreated control), Sorghum ([4]; 125 g of ai./ha): 80%; degree of damage to the plants (% damage vs untreated control), Ambrosia ([7]; 125 g of ai./ha): 95%; degree of damage to the plants (% damage vs untreated control), Solanum ([10]; 125 g of ai./ha): 95%; degree of damage to the plants (% damage vs untreated control), Poa ([12]; 125 g of ai./ha): 80%; degree of damage to the plants (% damage vs untreated control), Matricaria ([13]; 125 g of ai./ha): 95%; degree of damage to the plants (% damage vs untreated control), Lolium ([18]; 125 g of ai./ha): 80%
